From ChEMBL document CHEMBL3351529, “Triazolopyridyl ketones as a novel class of antileishmanial agents. DNA binding and BSA interaction” (Bioorg Med Chem, 2014)
Calls of active or inactive are those of the source. No cut-off for these calls is given here.

Key:
Leishmania braziliensis = assay: Antileishmanial activity against promastigote form of Leishmania braziliensis 2903 after 48 hrs by resazurin fluorescence assay; assay type: functional, organism-based; settings: Leishmania braziliensis, 2903, 48 h
Leishmania guyanensis = assay: Antileishmanial activity against promastigote form of Leishmania guyanensis 141/93 after 48 hrs by resazurin fluorescence assay; assay type: functional, organism-based; settings: 141/93, 48 h
Leishmania infantum [1] = assay: Antileishmanial activity against promastigote form of Leishmania infantum MCAN/ES/96/BCN150 after 48 hrs by resazurin fluorescence assay; assay type: functional, organism-based
[2] = Cytotoxicity against mouse J774 cells assessed as reduction in cell viability after 24 hrs by resazurin fluorescence assay; assay type: cell-based
[3] = Selectivity index, ratio of CC50 for mouse J774 cells to IC50 for promastigote form of Leishmania guyanensis 141/93; assay type: functional
[4] = Selectivity index, ratio of CC50 for mouse J774 cells to IC50 for promastigote form of Leishmania braziliensis 2903; assay type: functional
Leishmania amazonensis [5] = assay: Antileishmanial activity against promastigote form of Leishmania amazonensis MHOM/Br/79/Maria after 48 hrs by resazurin fluorescence assay; assay type: functional, organism-based
Mus musculus [6] = assay: Toxicity in BALB/c mouse assessed as hair loss at 5 mg/kg, ip qd for 5 consecutive days; assay type: organism-based; design: dose 5 mg/kg, route intraperitoneal; settings: in vivo
Mus musculus [7] = assay: Toxicity in BALB/c mouse assessed as gross weight loss at 5 mg/kg, ip qd for 5 consecutive days; assay type: organism-based; design: dose 5 mg/kg, route intraperitoneal; settings: in vivo
Albumin [8] = target: T1, Albumin (Bos taurus, UniProt P02769); assay: Competitive binding affinity to bovine serum albumin site 1 assessed as quenching constant after 10 mins by fluorimetric titration method in presence of warfarin; assay type: ADME; settings: cattle, isolated protein
Leishmania infantum [9] = assay: Antileishmanial activity against amastigote form of Leishmania infantum MCAN/ES/96/BCN150 infected in mouse J774 cells assessed as reduction in intracellular amastigotes compound treated for 48 hrs followed by 3 days incubation for transformation by resazurin fluorescence assay; assay type: functional, organism-based; settings: MCAN/ES/96/BCN150, J774
[10] = Selectivity index, ratio of CC50 for mouse J774 cells to IC50 for amastigote form of Leishmania amazonensis MHOM/Br/79/Maria infected in mouse J774 cells; assay type: functional
Calf thymus DNA [11] = assay: Binding affinity to calf thymus DNA assessed as hypochromic effect at DNA-compound ratio of 3 by UV-visible titration method; assay type: nucleic-acid assay; settings: Bos taurus
Leishmania amazonensis [12] = assay: Antileishmanial activity against amastigote form of Leishmania amazonensis MHOM/Br/79/Maria infected in mouse J774 cells assessed as reduction in intracellular amastigotes compound treated for 48 hrs followed by 3 days incubation for transformation by resazurin fluorescence assay; assay type: functional, organism-based
Calf thymus DNA [13] = assay: Binding affinity to calf thymus DNA by UV-visible titration method; assay type: nucleic-acid assay; settings: Bos taurus
Leishmania infantum [14] = assay: Antileishmancidal activity against amastigote form of Leishmania infantum MCAN/ES/96/BCN150 infected in BALB/c mouse assessed as reduction of parasite burden in liver at 5 mg/kg, ip qd for 5 consecutive days starting 21 days post infection measured after 7 days relative to untreated control; assay type: functional; design: scale not given: the % may be the effect or the level left
Bos taurus = organism: Bos taurus; assay: Effect on calf thymus DNA viscosity at 1 to 10 uM
[15] = Selectivity index, ratio of CC50 for mouse J774 cells to IC50 for amastigote form of Leishmania infantum MCAN/ES/96/BCN150 infected in mouse J774 cells; assay type: functional
[16] = Selectivity index, ratio of CC50 for mouse J774 cells to IC50 for promastigote form of Leishmania infantum MCAN/ES/96/BCN150; assay type: functional
Albumin [17] = target: T1, Albumin; assay: Binding affinity to bovine serum albumin assessed as quenching constant after 10 mins by Stern-Volmer plot method; assay type: ADME; settings: cattle, isolated protein
Leishmania infantum [18] = assay: Antileishmancidal activity against amastigote form of Leishmania infantum MCAN/ES/96/BCN150 infected in BALB/c mouse assessed as reduction of parasite burden in spleen at 5 mg/kg, ip qd for 5 consecutive days starting 21 days post infection measured after 7 days relative to untreated control; assay type: functional; design: scale not given: the % may be the effect or the level left; settings: route intraperitoneal
[19] = Selectivity index, ratio of CC50 for mouse J774 cells to IC50 for promastigote form of Leishmania amazonensis MHOM/Br/79/Maria; assay type: functional
Albumin [20] = target: T1, Albumin; assay: Binding affinity to bovine serum albumin after 10 mins by fluorimetric titration method; assay type: ADME; settings: cattle, isolated protein
Albumin [21] = target: T1, Albumin; assay: Competitive binding affinity to bovine serum albumin site 2 assessed as quenching constant after 10 mins by fluorimetric titration method in presence of ibuprofen; assay type: ADME; settings: cattle, isolated protein
Calf thymus DNA [22] = assay: Binding affinity to calf thymus DNA at 10 uM by UV-visible titration method; assay type: nucleic-acid assay; settings: Bos taurus
[23] = Leishmania infantum, MCAN/ES/96/BCN150, 48 h, read-out: IC50
[24] = Leishmania amazonensis, MHOM/Br/79/Maria, 48 h, read-out: IC50

T1 sequence (P02769 whole entry): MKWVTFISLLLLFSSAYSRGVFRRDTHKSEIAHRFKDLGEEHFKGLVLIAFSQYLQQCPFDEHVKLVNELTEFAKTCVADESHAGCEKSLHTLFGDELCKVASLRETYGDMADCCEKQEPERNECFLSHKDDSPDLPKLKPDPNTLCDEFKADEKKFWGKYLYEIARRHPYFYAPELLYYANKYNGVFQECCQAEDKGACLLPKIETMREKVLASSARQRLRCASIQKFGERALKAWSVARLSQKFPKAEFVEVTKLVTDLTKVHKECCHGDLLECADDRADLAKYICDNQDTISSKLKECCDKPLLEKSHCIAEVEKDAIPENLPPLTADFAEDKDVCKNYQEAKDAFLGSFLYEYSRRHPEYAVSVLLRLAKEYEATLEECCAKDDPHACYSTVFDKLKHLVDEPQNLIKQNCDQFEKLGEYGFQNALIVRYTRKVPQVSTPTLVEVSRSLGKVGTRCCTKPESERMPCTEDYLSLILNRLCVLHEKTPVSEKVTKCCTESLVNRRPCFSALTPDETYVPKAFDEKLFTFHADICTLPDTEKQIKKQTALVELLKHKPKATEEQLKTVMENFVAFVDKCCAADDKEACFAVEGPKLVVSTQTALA

Structure (SMILES) | IC50 (Leishmania braziliensis) | IC50 (Leishmania guyanensis) | CC50 at 24 h [2] | Ratio CC50/IC50 [3] | Ratio CC50/IC50 [4] | Kb (Albumin [8]) | IC50 (Leishmania infantum [9]) | Ratio CC50/IC50 [10] | Activity (Calf thymus DNA [11]) | Kb (Calf thymus DNA [13]) | Activity (Bos taurus) | IC50 (Leishmania infantum [1]; [23]) | Ratio CC50/IC50 [15] | Ratio CC50/IC50 [16] | KSV (Albumin [17]) | Activity (Leishmania infantum [18]) | Ratio CC50/IC50 [19] | Kb (Albumin [20]) | Kq (Albumin [20]) | IC50 (Leishmania amazonensis [5]; [24]) | further results
O=C(c1cccc2c(-c3ccccc3)nnn12)c1cccc2c(-c3ccccc3)nnn12 | 56.8 µM | 53.8 µM | ≥ 300 µM | >4.5 | >2.5 | – | – | – | – | – | – | – | – | – | – | – | – | – | – | – | IC50 (Leishmania infantum [1]): Not Active; IC50 (Leishmania amazonensis [5]): Not Active
O=C(c1cccc(-c2nnn3ccccc23)n1)c1cccc(-c2nnn3ccccc23)n1 | 26.8 µM | 29.3 µM | ≥ 300 µM | >10.2 | >11.2 | 9.3 ×10³ /M | 19.5 µM | >2.6 | 60% | 1.14 ×10⁵ /M | inactive | 47.3 µM | >15.3 | >6.3 | 2.6 ×10⁵ /M | 99.3% | >3.3 | 2.5 ×10⁴ /M | 2.6 ×10¹³ /M/sec | 89.6 µM | Activity (Mus musculus [6]): Non-toxic; Activity (Mus musculus [7]): Non-toxic; IC50 (Leishmania amazonensis [12]; Leishmania amazonensis, MHOM/Br/79/Maria, J774, read-out: IC50): 115 µM; Activity (Leishmania infantum [14]; route intraperitoneal): 92.8%; Kb (Albumin [21]): 5.3 ×10³ /M
O=C(c1ccccn1)c1cccc2c(-c3ccccc3)nnn12 | 169 µM | 126 µM | ≥ 300 µM | >2.4 | >1.8 | – | – | – | – | – | – | 173 µM | – | >1.9 | – | – | >2.8 | – | – | 106 µM | –
CCCCCCCCCCCCCCCCOP(=O)([O-])OCC[N+](C)(C)C [MILTEFOSINE] | 27.1 µM | 53.6 µM | 164 µM | 3.1 | 6 | – | – | 6.5 | – | – | – | 21.3 µM | 5.7 | 7.7 | – | – | 5.8 | – | – | 28.3 µM | –
O=C(c1ccccn1)c1cccc(-c2nnn3ccccc23)n1 | 190 µM | 109 µM | ≥ 300 µM | >2.8 | >1.6 | – | – | – | – | – | – | 231 µM | – | >1.3 | – | – | >2.8 | – | – | 108 µM | Activity (Calf thymus DNA [22]): inactive
O=C(c1cccc(C(=O)c2cccc(-c3nnn4ccccc34)n2)n1)c1cccc(-c2nnn3ccccc23)n1 | 59.4 µM | 28.7 µM | ≥ 300 µM | >10.4 | >5.1 | 8.2 ×10³ /M | 38 µM | – | 60% | 3.26 ×10⁵ /M | inactive | 99.8 µM | >7.9 | >3 | 2.4 ×10⁵ /M | 78.2% | >5.6 | 1.9 ×10⁴ /M | 2.4 ×10¹³ /M/sec | 53.7 µM | IC50 (Leishmania amazonensis [12]; j774): Not Active; Activity (Leishmania infantum [14]): inactive; Kb (Albumin [21]): 3.8 ×10³ /M
